Data published in PubChem BioAssay AID248 (DTP/NCI, 2004).
Values joined by “and” are separate entries in the source; they are usually repeats but may differ in a detail not shown here. Identical values can stand only once. Toxic doses and inconclusive results are not listed.

System: L1210 leukemia ip in BDF1 mice, survival T/C
Test: NCI In Vivo Anticancer Drug Screen. Data for tumor model L1210 Leukemia (intraperitoneal) in B6D2F1 (BDF1) mice
Settings: higher = longer survival
In short: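 In this screen, tumor-bearing mice given compound are compared to those given vehicle, and their survival values are reported as a treated-to-control quotient.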

[1] = endpoint: mean survival time, dose: 100.0 mg/kg/injection, schedule: Q01DX001 (ip), vehicle: saline with Tween-80
[2] = endpoint: mean survival time, dose: 100.0 mg/kg/injection, schedule: Q01DX001 (ip), vehicle: saline
[3] = endpoint: mean survival time, dose: 200.0 mg/kg/injection, schedule: Q01DX001 (ip), vehicle: saline
[4] = endpoint: mean survival time, dose: 400.0 mg/kg/injection, schedule: Q01DX001 (ip), vehicle: saline
[5] = endpoint: mean survival time, dose: 100.0 mg/kg/injection, schedule: Q01DX009 (ip), vehicle: Klucel (hydroxypropylcellulose) (HPC)
[6] = endpoint: mean survival time, dose: 100.0 mg/kg/injection, schedule: Q04DX003 (ip), vehicle: Klucel (hydroxypropylcellulose) (HPC)
[7] = endpoint: mean survival time, dose: 200.0 mg/kg/injection, schedule: Q01DX009 (ip), vehicle: Klucel (hydroxypropylcellulose) (HPC)
[8] = endpoint: mean survival time, dose: 200.0 mg/kg/injection, schedule: Q04DX003 (ip), vehicle: Klucel (hydroxypropylcellulose) (HPC)
[9] = endpoint: mean survival time, dose: 400.0 mg/kg/injection, schedule: Q01DX009 (ip), vehicle: Klucel (hydroxypropylcellulose) (HPC)
[10] = endpoint: mean survival time, dose: 400.0 mg/kg/injection, schedule: Q04DX003 (ip), vehicle: Klucel (hydroxypropylcellulose) (HPC)
[11] = endpoint: mean survival time, dose: 100.0 mg/kg/injection, schedule: Q01DX009 (ip), vehicle: saline with Tween-80
[12] = endpoint: mean survival time, dose: 200.0 mg/kg/injection, schedule: Q01DX009 (ip), vehicle: saline with Tween-80
[13] = endpoint: mean survival time, dose: 400.0 mg/kg/injection, schedule: Q01DX009 (ip), vehicle: saline with Tween-80
[14] = endpoint: mean survival time, dose: 25.0 mg/kg/injection, schedule: Q01DX009 (ip), vehicle: saline
[15] = endpoint: mean survival time, dose: 50.0 mg/kg/injection, schedule: Q01DX009 (ip), vehicle: saline
[16] = endpoint: mean survival time, dose: 100.0 mg/kg/injection, schedule: Q01DX009 (ip), vehicle: saline
[17] = endpoint: mean survival time, dose: 200.0 mg/kg/injection, schedule: Q01DX009 (ip), vehicle: saline
[18] = endpoint: mean survival time, dose: 400.0 mg/kg/injection, schedule: Q01DX009 (ip), vehicle: saline

CCOC(=O)C[S][Sn]([Cl])([Cl])[S]CC(=O)OCC
T/C [1]: 100 % of control
T/C (endpoint: mean survival time, dose: 200.0 mg/kg/injection, schedule: Q01DX001 (ip), vehicle: saline with Tween-80): 92 % of control
T/C (endpoint: mean survival time, dose: 400.0 mg/kg/injection, schedule: Q01DX001 (ip), vehicle: saline with Tween-80): 87 % of control

NC(=O)N/N=C1\CCCC(CCC(=O)O)C1 (centres undefined)
T/C (endpoint: mean survival time, dose: 75.0 mg/kg/injection, schedule: Q01DX009 (ip), vehicle: other): 101 % of control
T/C [2]: 89 % of control
T/C (endpoint: mean survival time, dose: 150.0 mg/kg/injection, schedule: Q01DX009 (ip), vehicle: other): 93 % of control
T/C [3]: 108 % of control
T/C (endpoint: mean survival time, dose: 300.0 mg/kg/injection, schedule: Q01DX009 (ip), vehicle: other): 94 % of control
T/C [4]: 100 % of control

O=C(Oc1ccccc1)c1ccc(Cl)cc1
T/C [5]: 98 % of control
T/C [6]: 102 % of control
T/C [7]: 95 % of control
T/C [8]: 101 % of control
T/C [9]: 98 % of control
T/C [10]: 98 % of control

OCCNc1ccc(I)cc1
T/C [11]: 90 % of control
T/C [12]: 92 % of control
T/C [13]: 87 % of control

CCCCOC1=CC2C(=CCC3C2(C)C(=O)CC2(C)C(C(C)(O)C(=O)/C=C/C(C)(C)O)C(O)CC32C)C(C)(C)C1=O (centres undefined)
T/C (endpoint: mean survival time, dose: 50.0 mg/kg/injection, schedule: Q04DX002 (ip), vehicle: saline with Tween-80): 97 % of control
T/C (endpoint: mean survival time, dose: 100.0 mg/kg/injection, schedule: Q04DX002 (ip), vehicle: saline with Tween-80): 97 % of control
T/C (endpoint: mean survival time, dose: 200.0 mg/kg/injection, schedule: Q04DX002 (ip), vehicle: saline with Tween-80): 101 % of control

O=C(NC(=S)Nc1cccc(Cl)c1)c1cccc([N+](=O)[O-])c1
T/C [5]: 103 % of control
T/C [6]: 105 % of control
T/C [7]: 100 % of control
T/C [8]: 97 % of control
T/C [9]: 100 % of control
T/C [10]: 95 % of control

Cc1cc2c(c(NC(=O)NCCCl)c1C)CCCC2
T/C [5]: 92 % of control
T/C [6]: 105 % of control
T/C [7]: 100 % of control
T/C [8]: 96 % of control
T/C [9]: 91 % of control
T/C [10]: 103 % of control

CC(C)CCn1ccc(N)nc1=O
T/C (endpoint: mean survival time, dose: 25.0 mg/kg/injection, schedule: Q01DX001 (ip), vehicle: saline with Tween-80): 97 % of control
T/C (endpoint: mean survival time, dose: 50.0 mg/kg/injection, schedule: Q01DX001 (ip), vehicle: saline with Tween-80): 101 % of control
T/C [1]: 90 % of control

CC(C)Oc1ccc(Nc2ccccc2)cc1
T/C (endpoint: mean survival time, dose: 50.0 mg/kg/injection, schedule: Q01DX009 (ip), vehicle: Klucel (hydroxypropylcellulose) (HPC)): 100 % of control
T/C [2]: 96 % of control
T/C [5]: 99 % of control
T/C [3]: 107 % of control
T/C [7]: 100 % of control
T/C [4]: 88 % of control

COc1c(OC)c2c3c(c(-c4c(C)cc5c(C(C)C)c(OC)c(OC)c6c5c4OC6OC)c(C)cc3c1C(C)C)OC2OC (centres undefined)
T/C [5]: 102 % of control
T/C [7]: 102 % of control
T/C [9]: 107 % of control

CCOC(=O)/C=C(\C)OCC
T/C [14]: 106 % of control
T/C [15]: 109 % of control
T/C [16]: 109 % of control
T/C [17]: 111 % of control
T/C [18]: 104 % of control

CSc1cccc(/C=C\c2ccc([N+](=O)[O-])cc2)c1
T/C [5]: 101 % of control
T/C [6]: 94 % of control
T/C [7]: 100 % of control
T/C [8]: 94 % of control
T/C [9]: 88 % of control
T/C [10]: 96 % of control

CCN(CC)CCC(=O)c1ccc2oc3ccccc3c2c1
T/C (endpoint: mean survival time, dose: 12.0 mg/kg/injection, schedule: Q01DX001 (ip), vehicle: saline): 100 % of control
T/C (endpoint: mean survival time, dose: 25.0 mg/kg/injection, schedule: Q01DX001 (ip), vehicle: saline): 90 % of control
T/C (endpoint: mean survival time, dose: 50.0 mg/kg/injection, schedule: Q01DX001 (ip), vehicle: saline): 103 % of control
T/C [2]: 113 % of control

C/C(=N\N=C(N)N)c1ccc(NC(=O)Nc2ccc(/C(C)=N/N=C(N)N)cc2)cc1
T/C (endpoint: mean survival time, dose: 10.0 mg/kg/injection, schedule: Q01DX009 (ip), vehicle: saline): 109 % of control and 124 % of control
T/C (endpoint: mean survival time, dose: 18.0 mg/kg/injection, schedule: Q01DX009 (ip), vehicle: water): 187 % of control
T/C (endpoint: mean survival time, dose: 20.0 mg/kg/injection, schedule: Q01DX005 (ip), vehicle: saline): 157 % of control
T/C (endpoint: mean survival time, dose: 30.0 mg/kg/injection, schedule: Q01DX009 (ip), vehicle: carboxymethylcellulose (CMC)): 152 % of control
T/C (endpoint: mean survival time, dose: 30.0 mg/kg/injection, schedule: Q01DX009 (ip), vehicle: water): 188 % of control
T/C (endpoint: mean survival time, dose: 40.0 mg/kg/injection, schedule: Q01DX005 (ip), vehicle: saline): 150 % of control
T/C (endpoint: mean survival time, dose: 40.0 mg/kg/injection, schedule: Q01DX009 (ip), vehicle: water): 174 % of control
T/C (endpoint: mean survival time, dose: 50.0 mg/kg/injection, schedule: Q01DX009 (ip), vehicle: carboxymethylcellulose (CMC)): 189 % of control
T/C (endpoint: mean survival time, dose: 50.0 mg/kg/injection, schedule: Q01DX009 (ip), vehicle: water): 259 % of control
T/C (endpoint: mean survival time, dose: 65.0 mg/kg/injection, schedule: Q01DX009 (ip), vehicle: water): 167 % of control
T/C (endpoint: mean survival time, dose: 80.0 mg/kg/injection, schedule: Q01DX005 (ip), vehicle: saline): 177 % of control
T/C (endpoint: mean survival time, dose: 83.3 mg/kg/injection, schedule: Q01DX009 (ip), vehicle: carboxymethylcellulose (CMC)): 257 % of control
T/C (endpoint: mean survival time, dose: 83.3 mg/kg/injection, schedule: Q01DX009 (ip), vehicle: water): 243 % of control
T/C (endpoint: mean survival time, dose: 108.0 mg/kg/injection, schedule: Q01DX015 (ip), vehicle: saline): 172 % of control
T/C (endpoint: mean survival time, dose: 160.0 mg/kg/injection, schedule: Q01DX005 (ip), vehicle: saline): 226 % of control
T/C (endpoint: mean survival time, dose: 180.0 mg/kg/injection, schedule: Q01DX015 (ip), vehicle: saline): 207 % of control
T/C (endpoint: mean survival time, dose: 400.0 mg/kg/injection, schedule: Q01DX001 (ip), vehicle: other): 157 % of control
T/C (endpoint: mean survival time, dose: 600.0 mg/kg/injection, schedule: Q01DX001 (ip), vehicle: other): 188 % of control
T/C (endpoint: median survival time, dose: 50.0 mg/kg/injection, schedule: Q01DX009 (ip), vehicle: saline): 162 % of control
T/C (endpoint: median survival time, dose: 60.0 mg/kg/injection, schedule: Q03HX024 (ip), vehicle: water): 228 % of control
T/C (endpoint: median survival time, dose: 75.0 mg/kg/injection, schedule: Q03HX024 (ip), vehicle: water): 166 % of control
T/C (endpoint: median survival time, dose: 90.0 mg/kg/injection, schedule: Q03HX024 (ip), vehicle: water): 284 % of control
T/C (endpoint: median survival time, dose: 100.0 mg/kg/injection, schedule: Q01DX009 (ip), vehicle: saline): 215 % of control and 262 % of control
T/C (endpoint: median survival time, dose: 105.0 mg/kg/injection, schedule: Q03HX024 (ip), vehicle: water): 168 % of control
T/C (endpoint: median survival time, dose: 120.0 mg/kg/injection, schedule: Q03HX024 (ip), vehicle: water): 303 % of control
T/C (endpoint: median survival time, dose: 200.0 mg/kg/injection, schedule: Q01DX009 (ip), vehicle: saline): 260 % of control and 312 % of control

Cc1cccc(Cl)c1NC(=O)CCCl
T/C [11]: 103 % of control
T/C [12]: 104 % of control
T/C [13]: 90 % of control

O=c1nc2n(CC(O)C(O)C(O)CO)c3ccccc3cc-2c(=O)[nH]1 (centres undefined)
T/C [2]: 90 % of control
T/C [3]: 90 % of control
T/C [4]: 93 % of control

CC1(Cl)C(=O)NC(=O)C1Cl (centres undefined)
T/C (endpoint: mean survival time, dose: 3.12 mg/kg/injection, schedule: Q01DX009 (ip), vehicle: saline): 92 % of control
T/C (endpoint: mean survival time, dose: 6.25 mg/kg/injection, schedule: Q01DX009 (ip), vehicle: saline): 87 % of control
T/C [14]: 87 % of control
T/C (endpoint: mean survival time, dose: 25.0 mg/kg/injection, schedule: Q04DX003 (ip), vehicle: saline): 103 % of control
T/C [15]: 92 % of control
T/C (endpoint: mean survival time, dose: 50.0 mg/kg/injection, schedule: Q04DX003 (ip), vehicle: saline): 97 % of control
T/C (endpoint: mean survival time, dose: 100.0 mg/kg/injection, schedule: Q04DX003 (ip), vehicle: saline): 110 % of control

N#Cc1c(Cl)nsc1Cl
T/C [5]: 97 % of control
T/C [7]: 102 % of control
